Source: patent US20230373937A1, “INHIBITORS OF SPINSTER HOMOLOG 2 (SPNS2) FOR USE IN THERAPY” (University of Virginia Patent Foundation, priority 2020, published 2023)
Counter-ions that a name gives are not always drawn.

Target: T1, SPNS2 (Mus musculus, UniProt Q91VM4)
T1 construct: expressed in transfected cells; host or cells: HeLa or U937 cells
T1 sequence (Q91VM4 1-549): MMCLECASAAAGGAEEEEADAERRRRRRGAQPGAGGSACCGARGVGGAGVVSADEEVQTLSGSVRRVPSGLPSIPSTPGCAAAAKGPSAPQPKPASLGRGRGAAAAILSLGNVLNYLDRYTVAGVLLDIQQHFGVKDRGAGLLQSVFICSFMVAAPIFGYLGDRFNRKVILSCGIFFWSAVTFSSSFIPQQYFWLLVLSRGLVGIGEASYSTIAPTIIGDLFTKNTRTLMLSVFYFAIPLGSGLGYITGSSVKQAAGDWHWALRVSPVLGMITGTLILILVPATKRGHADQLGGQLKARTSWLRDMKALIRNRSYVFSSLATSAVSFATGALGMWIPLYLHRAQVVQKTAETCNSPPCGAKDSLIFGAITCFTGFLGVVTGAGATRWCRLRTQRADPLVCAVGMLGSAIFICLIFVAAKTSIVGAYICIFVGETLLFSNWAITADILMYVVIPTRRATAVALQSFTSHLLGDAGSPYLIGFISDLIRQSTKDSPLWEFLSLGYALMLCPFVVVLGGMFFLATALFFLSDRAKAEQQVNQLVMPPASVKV
Experiment: S1P transporter assay: S1P release from whole cells expressing SPNS2
Assay type: cell-based
Settings: HeLa or U937 cells expressing mouse SPNS2; 18 hours; S1P in media measured by LC-MS; read-out: IC50 (in vitro inhibition against SPNS2)
Procedure, shortened: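 HeLa or U937 cells expressing mouse SPNS2 (human ortholog: U-937 with endogenous SPNS2), confluent, exposed 18 hours to test articles at 1×10-9–1×10^-4 M in serum-free RPMI with 0.2% fatty acid free BSA plus DOP, NaF and Na3VO4. Released S1P quantified by LC-MS against S1P-d7 standard, yielding IC50.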

Row | Structure (SMILES) | IC50
1 | CCCCCCCCCCc1ccc(-c2noc(CN)n2)cc1 [Compound 5f, (3-(4-decylphenyl)-1,2,4-oxadiazol-5-yl)methanamine 2,2,2-trifluoroacetate] | ≤ 2000 nM
2 | CCCCCCCCCCc1ccc(-c2noc(CNC(=O)[C@H]3CCCCN3)n2)cc1 [Compound 9t, (R)—N-((3-(4-decylphenyl)-1,2,4-oxadiazol-5-yl)methyl)piperidine-2-carboxamide hydrochloride] | > 2000 nM
3 | C/C(=N\OCCCCc1ccccc1)c1ccc(-c2noc(CCCN)n2)cc1 [Compound 28, 1-(4-(5-(3-aminopropyl)-1,2,4-oxadiazol-3-yl)phenyl)ethan-1-one 0-(4-phenylbutyl) oxime hydrochloride] | > 2000 nM
4 | CCCCCCCCCCc1ccc(-c2noc(CNC(=O)[C@@H]3C[C@@H](O)CN3)n2)cc1 [Compound 9w, (2S,4R)—N-((3-(4-decylphenyl)-1,2,4-oxadiazol-5-yl)methyl)-4-hydroxypyrrolidine-2-carboxamide hydrochloride] | > 2000 nM
5 | CCCCCCCCCCc1ccc(-c2noc(CCNC(=O)CN)n2)cc1 [Compound 9h, 2-amino-N-(2-(3-(4-decylphenyl)-1,2,4-oxadiazol-5-yl)ethyl)acetamide hydrochloride] | ≤ 2000 nM
6 | CCCCCCCCCCc1ccc(-c2noc(C(=O)NCCCN)n2)cc1 [Compound 16b, N-(3-aminopropyl)-3-(4-decylphenyl)-1,2,4-oxadiazole-5-carboxamide hydrochloride] | > 2000 nM
7 | CCCCCCCCCCc1ccc(-c2noc(CNC(=O)CN3CCNCC3)n2)cc1 [Compound 9c, N-((3-(4-decylphenyl)-1,2,4-oxadiazol-5-yl)methyl)-2-(piperazin-1-yl)acetamide hydrochloride] | > 2000 nM
8 | CCCCCCCCCCc1ccc(-c2noc(CNC(=O)[C@@H]3CCN3)n2)cc1 [Compound 9z, (S)—N-((3-(4-decylphenyl)-1,2,4-oxadiazol-5-yl)methyl)azetidine-2-carboxamide 2,2,2-trifluoroacetate] | ≤ 2000 nM
9 | CCCCCCCCCCc1ccc(-c2noc(C(=O)NCCN)n2)cc1 [Compound 16a, N-(2-aminoethyl)-3-(4-decylphenyl)-1,2,4-oxadiazole-5-carboxamide hydrochloride] | ≤ 2000 nM
10 | CCCCCCCCCCc1ccc(-c2noc(C[C@H](C)N)n2)cc1 [Compound 5c, (S)-1-(3-(4-decylphenyl)-1,2,4-oxadiazol-5-yl)propan-2-amine 2,2,2-trifluoroacetate] | > 2000 nM
11 | CCCCCCCCCCc1ccc(-c2noc(CNC(=O)[C@@H]3CCNC3)n2)cc1 [Compound 9j, (R)—N-((3-(4-decylphenyl)-1,2,4-oxadiazol-5-yl)methyl)pyrrolidine-3-carboxamide hydrochloride] | ≤ 2000 nM
12 | CCCCNC(=O)c1ccc(-c2noc(CCCN)n2)cc1 [Compound 13b, 4-(5-(3-aminopropyl)-1,2,4-oxadiazol-3-yl)-N-butylbenzamide hydrochloride] | > 2000 nM
13 | CCCCCCCCCCc1ccc(-c2noc(CCCN3CCOCC3)n2)cc1 [Compound 6f, 4-(3-(3-(4-decylphenyl)-1,2,4-oxadiazol-5-yl)propyl)morpholine hydrochloride] | > 2000 nM
14 | CCCCCCCCCCc1ccc(-c2noc(CC(O)CN3CCOCC3)n2)cc1 (stereo not drawn) [Compound 6c, 1-(3-(4-decylphenyl)-1,2,4-oxadiazol-5-yl)-3-morpholinopropan-2-ol hydrochloride] | > 2000 nM
15 | CCCCCCCCCCc1ccc(-c2noc(C(Cl)CCN)n2)cc1 (racemic) [Compound 5k, (±)-3-chloro-3-(3-(4-decylphenyl)-1,2,4-oxadiazol-5-yl)propan-1-amine hydrochloride] | > 2000 nM
